Measurements taken from US20090297656A1, “Liquid Formulation Based On a Guanidinoacetic Acid Component” (priority 2005, published 2009).
Like-named read-outs stand apart in the source and are kept apart here. Values belong to the compound of their own block, whether it stands above or below them.

Key:
[1] = Storage stability in aqueous solution at pH 3.5 and room temperature; format: physicochemical; details: pH 3.5, room temperature
Text: The rate of breakdown is dependent on the pH of the solution and temperature, with the concentration not playing a role. Particularly in the acid pH region, this breakdown to creatinine proceeds very rapidly. At room temperature and pH 3.5, creatine is already more than 20% converted to creatinine after 3 days and the physiological effect is lost. A pH of 3.5 is a typical pH for, for example, a soft drink. Owing to the rapid breakdown of creatine in this environment, the use of creatine, in particular creatine monohydrate, in aqueous or moist formulations for human and animal nutrition is virtually excluded. Even the pH in the stomach of 1 to 2 can, depending on the residence time, lead to significant breakdown of creatine to form creatinine.
According to FIG. 1, the storage stability of creatine was determined in comparison with a mixture of 4 parts by weight of guanidinoacetic acid and 6 parts by weight of betaine in aqueous solution at pH 3.5 and room temperature: whereas creatine, after 3 days, is already more than 20% converted to creatinine, in the mixture of guanidinoacetic acid and betaine under identical conditions, after 90 days, 95% of the initial amount was still detectable as guanidinoacetic acid.

[2] = cited from earlier work
Staphyllococcus aureus = details: animal experiments; cited from earlier work
[3] = Stability under pasteurization or sterilization of aqueous preparations; format: physicochemical; details: in contrast to creatine
Text: In the production process, aqueous preparations, such as those according to the invention, also, are generally pasteurized or sterilized. […] These advantages were unexpected in this manner in their totality.

Solubility in water = format: physicochemical; details: room temperature
Text: In comparison with creatine, guanidinoacetic acid has a lower solubility in water (3.8 g per liter at room temperature). […] Therefore, for example, even in half a liter of an aqueous drink, a physiologically meaningful daily dose of the guanidinoacetic acid component can be incorporated without problem.

[4] = 0.032% guanidinoacetic acid in hens' feed
[5] = chickens, less than 0.1% guanidinoacetic acid in the feed

- stability under the stated conditions [1]: completely stable
Structure (SMILES): C[N+](C)(C)CC(=O)O [Betaine, betaine]

- converted to creatinine ([1]; after 3 days): more than 20%
Structure (SMILES): CN(CC(=O)O)C(=N)N [creatine, reference compound]
- weight gain ([2]; chickens, 0.2% creatine in the feed): 4%

- stability under pasteurization/sterilization conditions [3]: outstanding stability
- solubility in water (Solubility in water): 3.8 g per liter
Structure (SMILES): N=C(N)NCC(=O)O [guanidinoacetic acid]
- use against bacterial infections (Staphyllococcus aureus): successfully used
- improved feed utilization [2, 4]: 3%
- weight gain [2, 4]: 3%
- lower feed consumption compared with the control group [2, 5]: 6%
- weight gain compared with the control group [2, 5]: 7%
